A short description of assay [1]: Inhibition of TEL fused BMX (unknown origin) transformed in mouse BaF3 cells.
Assay [2] is described as follows: Inhibition of TEL fused BLK (unknown origin) transformed in mouse BaF3 cells.

SMILES strings stand for the structures.

Consider `C=CC(=O)Nc1cccc(Oc2nc(Nc3ccc(N4CCN(C)CC4)cc3)ncc2Cl)c1`, for which the IC50 is 0.0004 µM in assay [1] and 0.02 µM in assay [2].
